In patent US9751881B2, “Inhibitors of the renal outer medullary potassium channel” (Merck Sharp & Dohme Corp., priority 2013, dated 2017):

molecular target: hROMK (hKir1.1) (Homo sapiens (Human), UniProt P48048); experiment: Thallium Flux Assay (ROMK channel functional thallium flux, FLIPR-Tetra); type: cell-based; conditions: HEK293 cells stably expressing hROMK (hKir1.1); unit not given in Table 4 (IC50 potencies less than 1 μM); read-out: ROMK TI IC50
Procedure: Cell Culture Conditions—HEK293 cells stably expressing hROMK (hKir1.1) were grown at 37° C. in a 10% CO2 humidified incubator in complete growth media: Dulbecco's Modified Eagle Medium supplemented with non-essential amino acids, Penicillin/Streptomycin/Glutamine, G418 and FBS. At >80% confluency, the media was aspirated from the flask and rinsed with 10 mL calcium/magnesium-free PBS. […] To dislodge the cell, the side of the flask was gently banged with one's hand. The cells completely titrated and then the cells were transferred to 25 mL complete media, centrifuged at 1,500 rpm for 6 min followed by resuspension in complete growth media and determine cell concentration. […] Under ideal growth conditions and appropriate tissue culture practices, this cell line is stable for 40-45 passages.
FluxOR Kit Components (Invitrogen F10017)
• FluxOR™ Reagent (Component A) • FluxOR™ Assay Buffer (Component B)—10× Concentrate • PowerLoad™ Concentrate (Component C)—100× Concentrate • Probenecid (Component D)—Lyophilized sample is kept at −20° C. Water soluble, 100× after solubilization in 1 mL water. […] Store at 4° C. • Thallium sulfate (Tl2SO4) Concentrate (Component G)—50 mM in water. […] Can be stored at room temperature • Stimulant Buffer (prepared at 5× final concentration in 1× FluxOR™Chloride-Free Buffer): 7.5 mM thallium sulfate and 0.75 mM potassium sulfate (to give a final assay concentration of 3 mM Thallium/0.3 mM potassium). Store at 4° C. when not in use. If kept sterile, this solution is good for months.
• 1. Seed HEK-hKir1.1 cells (50 μl at 20,000 cells/well) in 384-well PDL coated Microplates • 2. Allow cells to adhere overnight in humidified 37° C./10% CO2 incubator • 3. Completely remove cell growth media from microplate and replace with 25 μl loading buffer • 4. Incubate Microplate at room temperature, protected form light, for 90 min • 5. Remove loading buffer and replace with 25 μl 1× Assay Buffer±test compound. • 6. Incubate microplate at room temperature, protected from light, for 30 min • 7. […] Excitation=400 nm, Emission=460 & 580 nm. Collect data for ˜10 min.
Data Calculation—The fluorescence intensity of wells containing 3 μM of a standard control ROMK inhibitor of the present invention was used to define the ROMK-sensitive component of thallium flux. Fluorescence in the presence of test compounds was normalized to control values to provide % fluorescence change.

hROMK (hKir1.1), sequence (P48048 whole entry): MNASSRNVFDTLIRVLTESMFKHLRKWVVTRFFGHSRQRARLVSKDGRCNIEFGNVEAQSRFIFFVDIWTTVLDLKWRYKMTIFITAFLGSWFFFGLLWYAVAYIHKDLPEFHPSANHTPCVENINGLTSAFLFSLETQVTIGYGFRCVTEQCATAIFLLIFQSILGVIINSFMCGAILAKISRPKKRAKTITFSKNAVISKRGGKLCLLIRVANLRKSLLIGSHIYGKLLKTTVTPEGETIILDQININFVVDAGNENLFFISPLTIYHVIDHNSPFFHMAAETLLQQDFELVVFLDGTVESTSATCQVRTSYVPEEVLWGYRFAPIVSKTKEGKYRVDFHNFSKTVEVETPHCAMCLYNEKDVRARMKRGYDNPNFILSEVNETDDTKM

| IC50 [nM] | SMILES |
| --- | --- |
| 17.6 | Cc1cc2c(cc1C(O)CN1CCC3(CC1)CCN(c1ccc(C#N)cn1)C3)COC2=O (single isomer, unassigned) [Example 24A, 6-(8-(2-Hydroxy-2-(6-methyl-1-oxo-1,3-dihydroisobenzofuran-5-yl)ethyl)-2,8-diazaspiro[4.5]decan-2-yl)nicotinonitrile] |
| 31.4 | Cc1cc2c(cc1C(O)CN1CCC3(CC1)CCN(c1ccc(C#N)cn1)C3)COC2=O (single isomer, unassigned) [Example 24B, 6-(8-(2-Hydroxy-2-(6-methyl-1-oxo-1,3-dihydroisobenzofuran-5-yl)ethyl)-2,8-diazaspiro[4.5]decan-2-yl)nicotinonitrile] |
| 135 | Cc1cc(N2CCC3(CCN(C[C@H](O)c4ccc5c(c4C)COC5=O)CC3)C2)cnc1S(C)(=O)=O [Example 23, (R)-5-(1-Hydroxy-2-(2-(5-methyl-6-(methylsulfonyl)pyridin-3-yl)-2,8-diazaspiro[4.5]decan-8-yl)ethyl)-4-methylisobenzofuran-1(3H)-one] |
| 74.4 | N#Cc1ccc(N2CCC3(CCN(CC(O)c4cc5c(cc4C4CC4)C(=O)OC5)CC3)C2)nc1 (centres unmarked) [Example 25, 6-(8-(2-(6-Cyclopropyl-1-oxo-1,3-dihydroisobenzofuran-5-yl)-2-hydroxyethyl)-2,8-diazaspiro[4.5]decan-2-yl)nicotinonitrile] |
| 458 | N#Cc1ccc(N2CCC3(CCN(CC(O)c4ccc5c(c4C4CC4)COC5=O)CC3)C2)nc1 (centres unmarked) [Example 26, 6-(8-(2-(4-Cyclopropyl-1-oxo-1,3-dihydroisobenzofuran-5-yl)-2-hydroxyethyl)-2,8-diazaspiro[4.5]decan-2-yl)nicotinonitrile] |
| 103 | N#Cc1ccc(N2CCC3(CCN(CC4OCCc5c4ccc4c5COC4=O)CC3)C2)nc1 (centres unmarked) [Example 27, 6-(8-((3-oxo-3,6,8,9-tetrahydro-1H-furo[3,4-f]isochromen-6-yl)methyl)-2,8-diazaspiro[4.5]decan-2-yl)nicotinonitrile] |
| 271 | CCS(=O)(=O)c1ccc(N2CCC3(CCN(C[C@H](O)c4ccc5c(c4C)COC5=O)CC3)C2)cn1 [Example 30, (R)-5-(2-(2-(6-(Ethylsulfonyl)pyridin-3-yl)-2,8-diazaspiro[4.5]decan-8-yl)-1-hydroxyethyl)-4-methylisobenzofuran-1(3H)-one] |
| 41.3 | Cc1c([C@@H](O)CN2CCC3(CC2)CCN(c2ccc(S(C)(=O)=O)cc2)C3)ccc2c1COC2=O [Example 31, (R)-5-(1-Hydroxy-2-(2-(4-(methylsulfonyl)phenyl)-2,8-diazaspiro[4.5]decan-8-yl)ethyl)-4-methylisobenzofuran-1(3H)-one] |
| 177 | Cc1c([C@@H](O)CN2CCC3(CC2)CCN(c2ccc(S(C)(=O)=O)nn2)C3)ccc2c1COC2=O [Example 32, (R)-5-(1-Hydroxy-2-(2-(6-(methylsulfonyl)pyridazin-3-yl)-2,8-diazaspiro[4.5]decan-8-yl)ethyl)-4-methylisobenzofuran-1(3H)-one] |

Further lines, the compound ahead of its results:

| SMILES | IC50 [nM] |
| --- | --- |
| Cc1c([C@@H](O)CN2CCC3(CC2)CC(=O)N(c2ccc(C#N)cn2)C3)ccc2c1COC2=O [Example 1, (R)-6-(8-(2-hydroxy-2-(4-methyl-1-oxo-1,3-dihydroisobenzofuran-5-yl)ethyl)-3-oxo-2,8-diazaspiro[4.5]decan-2-yl)nicotinonitrile] | 10.5 |
| Cc1cc2c(cc1C(O)CN1CCC3(CC1)CC(=O)N(c1ccc(C#N)cn1)C3)COC2=O (centres unmarked) [Example 2, 6-(8-(2-hydroxy-2-(6-methyl-1-oxo-1,3-dihydroisobenzofuran-5-yl)ethyl)-3-oxo-2,8-diazaspiro[4.5]decan-2-yl)nicotinonitrile] | 23 |
| Cc1c([C@@H](O)CN2CCC3(CC2)CCN(c2ccc(C#N)cn2)C3)ccc2c1COC2=O [Example 3, (R)-6-(8-(2-hydroxy-2-(4-methyl-1-oxo-1,3-dihydroisobenzofuran-5-yl)ethyl)-2,8-diazaspiro[4.5]decan-2-yl)nicotinonitrile] | 10 |
| Cc1c(CCN2CCC3(CC2)CC(=O)N(c2ccc(C#N)cn2)C3)ccc2c1COC2=O [Example 4, 6-(8-(2-(4-methyl-1-oxo-1,3-dihydroisobenzofuran-5-yl)ethyl)-3-oxo-2,8-diazaspiro[4.5]decan-2-yl)nicotinonitrile] | 12 |
| Cc1c([C@@H](O)CN2CCC3(CC2)CCN(c2ccc(C#N)cn2)C3=O)ccc2c1COC2=O [Example 5, 6-{8-[(2R)-2-hydroxy-2-(4-methyl-1-oxo-1,3-dihydro-2-benzofuran-5-yl)ethyl]-1-oxo-2,8-diazaspiro[4.5]dec-2-yl}pyridine-3-carbonitrile] | 37 |
| Cc1c([C@@H](O)CN2CCC3(CC2)CC(=O)N(c2ccc(-n4cnnn4)cn2)C3)ccc2c1COC2=O [Example 6, (R)-2-(5-(1H-tetrazol-1-yl)pyridin-2-yl)-8-(2-hydroxy-2-(4-methyl-1-oxo-1,3-dihydroisobenzofuran-5-yl)ethyl)-2,8-diazaspiro[4.5]decan-3-one] | 92.5 |
| COc1cc(N2CCC3(CCN(C[C@H](O)c4ccc5c(c4C)COC5=O)CC3)C2)ncc1C#N [Example 7, (R)-6-(8-(2-Hydroxy-2-(4-methyl-1-oxo-1,3-dihydroisobenzofuran-5-yl)ethyl)-2,8-diazaspiro[4.5]decan-2-yl)-4-methoxynicotinonitrile] | 21.5 |
| Cc1c([C@@H](O)CN2CCC3(CC2)CCN(c2cncc(C#N)c2)C3)ccc2c1COC2=O [Example 12, (R)-5-(8-(2-Hydroxy-2-(4-methyl-1-oxo-1,3-dihydroisobenzofuran-5-yl)ethyl)-2,8-diazaspiro[4.5]decan-2-yl)nicotinonitrile] | 33 |
| Cc1c([C@@H](O)CN2CCC3(CC2)CCN(c2cc(C#N)ccn2)C3)ccc2c1COC2=O [Example 13, (R)-2-(8-(2-Hydroxy-2-(4-methyl-1-oxo-1,3-dihydroisobenzofuran-5-yl)ethyl)-2,8-diazaspiro[4.5]decan-2-yl)isonicotinonitrile] | 26 |
| Cc1c([C@@H](O)CN2CCC3(CC2)CC(=O)N(c2ccc(C#N)cc2)C3)ccc2c1COC2=O [Example 14, (R)-4-(8-(2-Hydroxy-2-(4-methyl-1-oxo-1,3-dihydroisobenzofuran-5-yl)ethyl)-3-oxo-2,8-diazaspiro[4.5]decan-2-yl)benzonitrile] | 15 |
| Cc1c([C@@H](O)CN2CCC3(CC2)CCN(c2ncc(-n4cnnn4)cn2)C3)ccc2c1COC2=O [Example 15, (R)-5-(2-(2-(5-(1H-tetrazol-1-yl)pyrimidin-2-yl)-2,8-diazaspiro[4.5]decan-8-yl)-1-hydroxyethyl)-4-methylisobenzofuran-1(3H)-one] | 57 |
| COc1cc(N2CC3(CCN(C[C@H](O)c4ccc5c(c4C)COC5=O)CC3)CC2=O)ccc1C#N [Example 16, (R)-4-(8-(2-Hydroxy-2-(4-methyl-1-oxo-1,3-dihydroisobenzofuran-5-yl)ethyl)-3-oxo-2,8-diazaspiro[4.5]decan-2-yl)-2-methoxybenzonitrile] | 51 |
| Cc1c(CCN2CCC3(CC2)CCN(c2ccc(-c4ncon4)cn2)C3)ccc2c1COC2=O [Example 17, 5-(2-(2-(5-(1,2,4-oxadiazol-3-yl)pyridin-2-yl)-2,8-diazaspiro[4.5]decan-8-yl)ethyl)-4-methylisobenzofuran-1(3H)-one] | 190 |
| Cc1c([C@@H](O)CN2CCC3(CC2)CCN(c2ccc(C#N)nn2)C3)ccc2c1COC2=O [Example 18, (R)-6-(8-(2-Hydroxy-2-(4-methyl-1-oxo-1,3-dihydroisobenzofuran-5-yl)ethyl)-2,8-diazaspiro[4.5]decan-2-yl)pyridazine-3-carbonitrile] | 156 |
| CC1Cc2cc(C(O)CN3CCC4(CC3)CCN(c3ccc(C#N)cn3)C4)ccc2C(=O)O1 [Example 21, 6-(8-(2-Hydroxy-2-((R)-3-methyl-1-oxoisochroman-6-yl)ethyl)-2,8-diazaspiro[4.5]decan-2-yl)nicotinonitrile] | 50.1 |
| Cc1c([C@@H](O)CN2CCC3(CC2)CCN(c2ccc(S(C)(=O)=O)cn2)C3)ccc2c1COC2=O [Example 22, (R)-5-(1-Hydroxy-2-(2-(5-(methylsulfonyl)pyridin-2-yl)-2,8-diazaspiro[4.5]decan-8-yl)ethyl)-4-methylisobenzofuran-1(3H)-one] | 41.1 |
| Cc1c([C@@H](O)CN2C3CCC2CC2(CC(=O)N(c4ccc(C#N)cn4)C2)C3)ccc2c1COC2=O (stereo partly drawn) [Example 29, 6-(8-((R)-2-Hydroxy-2-(4-methyl-1-oxo-1,3-dihydroisobenzofuran-5-yl)ethyl)-5′-oxo-8-azaspiro[bicyclo[3.2.1]octane-3,3′-pyrrolidin]-1′-yl)nicotinonitrile] | 198 |
